Measurements published in patent publication US11219580B2, “Oral composition” (Andalay Technologies Limited, priority 2016, dated 2022).
Where two headings read alike, the source gives them in different places.

What was measured:
rat = details: cited from earlier work
[1] = Dissolution Test 2: release of active ingredients from sports-gel style mouthwash (protocol 1B) under simulated mastication, QTOF-UHPLC; assay type: physicochemical; details: for release profile from sports-gel style mouthwash: 10 g mouthwash of protocol 1B in 100 mL stirred water at 37° C., samples 10-600 s, FIGS. 7-11; for relative release profile, order of release: protocol 1B mouthwash, peak-normalised plots, FIG. 12
Description: A sports-gel style mouthwash was prepared according to protocol 1B described above. In order to measure the release of the active ingredients from the mouthwash, it was necessary to recreate the mastication conditions of the mouth. The following protocol was employed for this purpose: • i. Whilst stirring with a 3.5 cm magnetic stirrer set at the “7” rotation setting, heat 100 mL of water to 37° C. in a beaker. • ii. Aspirate 1 mL of solution using a pipette to obtain a standard sample. • iii. Add 10 g of the sports-gel style mouthwash prepared according to protocol 1B to the heated water. • Aspirate 1 mL of the resultant solution at time intervals of t=10, 20, 40, 60, 90, 120, 150, 180, 210, 240, 270, 300, 360 and 600 seconds, ensuring that the samples are taken from the outermost rim of the beaker.
Prior to mass spectrometry analysis, the samples and standards obtained were diluted 1 part in 10 in acetonitrile (ACN). All concentrations given below for the calibration are of these diluted solutions.
All samples and calibration standards were injected in the following order: triplicate injections of full calibration standards from low to high concentration, triplicate injection of acetonitrile blank, triplicate injection of sample series B in timeline sequence (each with a single blank in between), single injection of full calibration standards from low to high concentration, triplicate injection of blank acetonitrile, triplicate injection of sample series B in timeline sequence (each with a single blank in between). The reason for the second, shorter, series of calibration standards was to determine if there was any significant decrease in sensitivity (indicated by decrease in peak area) during the batch.
The QTOF-UHPLC analysis was conducted using a MaXis HD quadrupole electrospray time-of-flight (ESI-QTOF) mass spectrometer (Bruker Daltonik GmbH, Bremen, Germany) operated in ESI positive-ion MS mode. The QTOF was coupled to an Ultimate 3000 UHPLC (Thermo Fisher Scientific, California, USA). The capillary voltage was set to 4500 V, nebulising gas at 2 bar, drying gas at 10 L/min at 200° C. The TOF scan range was from 50-750 mass-to-charge ratio (m/z). For effective transmission of ions the ion energy was set to 1.0 eV with the collision energy for TOF MS acquisition at 2.0 eV. Liquid chromatography was performed using a Kinetex […], 2.1×100 mm HILIC column (Phenomenex) with a flow rate of 0.4 mL/min at 30° C. and an injection volume of 10 μL. Mobile phases A and B consisted of 50:50 ACN:H2O with 0.2% v/v formic acid and 10 mM ammonium formate, and 95:5 ACN:H2O with 0.2% v/v formic acid and 10 mM ammonium formate, respectively. Gradient elution was carried out with 100% mobile phase B until 2 min followed by a linear gradient to 0% B at 12 mins, keeping 0% B up until 15 mins, thereafter returned to 100% B until in 20 mins total run time. The MS instrument was calibrated using a range of sodium formate clusters introduced by 10 μL loop-injection prior to the chromatographic run. The mass calibrant solution consisted of 3 parts of 1 M NaOH to 97 parts of 50:50 water:isopropanol with 0.2% formic acid. The observed mass and isotope pattern perfectly matched the corresponding theoretical values as calculated from the expected elemental formula. Most of the target compounds were detected as [M+H]^+ and [M+Na]^+ ions. Data processing was performed using the Data Analysis software version 4.3 (Bruker Daltonik GmbH, Bremen, Germany). Quantification was carried out using the peak area in the extracted ion chromatogram (EIC) of the sum of the protonated and sodiated ion of the target compound.
Using the mass spectrometry data obtained, it is possible evaluate the release profiles of the active ingredients present in the sports-gel style mouthwash under simulated mastication conditions.

Compound: O [Water]
- LD50 rat (rat): 90,000 mg/kg

Compound: Sorbitan monolaurate
- release profile from sports-gel style mouthwash [1]: fast release
- relative release profile, order of release [1]: the next active ingredient to reach an effective concentration

Compound: OC[C@@H](O)[C@H](O)[C@@H](O)CO [Xylitol]
- release profile from sports-gel style mouthwash [1]: released quickly
- relative release profile, order of release [1]: follow the release of the surfactant
- LD50 rat (rat; in vivo): 16,500 mg/kg

Compound: CC12CCC(CC1)C(C)(C)O2 [Eucalyptol]
- release profile from sports-gel style mouthwash [1]: reaches its maximum concentration significantly later than, for example, the glycerol or sorbitan monolaurate
- relative release profile, order of release [1]: follow the release of the surfactant

Compound: OCC(O)CO [Glycerine, glycerol]
- release profile from sports-gel style mouthwash [1]: immediately releases into the surrounding solution and reaches its effective concentration within seconds
- relative release profile, order of release [1]: released immediately upon commencing mastication
- LD50 rat (rat; in vivo): 12,600 mg/kg

Compound: Cc1ccc(C(C)C)c(O)c1 [Thymol]
- release profile from sports-gel style mouthwash [1]: reaches its maximum concentration at a later stage of mastication

Compound: O=[N+]([O-])[O-].[K+] [Potassium nitrate]
- LD50 rat (rat): 3,750 mg/kg

Compound: CC1CCC(C(C)C)C(O)C1 (centres unmarked) [Menthol]
- LD50 rat (rat; in vivo): 3,300 mg/kg
